According to US9150554B2, “Fused ring inhibitors of hepatitis C” (Presidio Pharmaceuticals, Inc., priority 2009, dated 2015):

Each molecule was assayed on HCV 1b_Huh-Luc/Neo-ET cell line persistently expressing a bicistronic genotype 1b replicon in Huh 7 cells (assay: HCV replicon assay, luciferase enzyme activity readout). Conditions: Hepatitis C virus, 72 h incubation, average EC50 range, read-out: Inhibition of HCV genotype 1b.
Format: cell-based
Protocol: Biological activity of the compounds of the invention was determined using an HCV replicon assay. The HCV 1b_Huh-Luc/Neo-ET cell line persistently expressing a bicistronic genotype 1b replicon in Huh 7 cells was obtained from ReBLikon GMBH. This cell line was used to test compound inhibition using luciferase enzyme activity readout as a measurement of compound inhibition of replicon levels.
On Day 1 (the day after plating cells), each compound is added in triplicate to the cells. Plates are incubated for 72 h prior to determining luciferase levels. Enzyme activity was measured using a Bright-Glo Kit (cat. number E2620) manufactured by Promega Corporation. The following equation was used to generate a percent control value for each compound. % Control=(Compound Luciferase Level/Control Luciferase Level)*100
The EC50 value was determined using GraphPad Prism and the following equation: Y=Bottom asymptote+(Top asymptote−Bottom asymptote)/(1+10^((Log EC50−X)*HillSlope))
EC50 values of compounds are determined several times in the replicon assay to generate average EC50 values. […]

SMILES | EC50
COC(=O)N[C@@H](C(=O)N[C@@H](C)c1ncc(-c2ccc3c(c2)Oc2ccc(-c4cnc([C@H](C)NC(=O)[C@H](NC(=O)OC)c5ccccc5)[nH]4)cc2O3)[nH]1)c1ccccc1 [Compound 38] | < 1 nM
COC(=O)N[C@H](C(=O)N1CCC[C@H]1c1ncc(-c2ccc3c(=O)c4cc(-c5cnc([C@@H]6CCCN6C(=O)[C@H](NC(=O)OC6CCOCC6)c6ccccc6)[nH]5)ccc4oc3c2)[nH]1)C(C)C [Compound 19] | < 1 nM
COC(=O)N[C@H](C(=O)N1CCC[C@H]1c1ncc(-c2cc3oc4ccc(-c5cnc([C@@H]6CCCN6C(=O)[C@H](NC(=O)OC)c6ccccc6)[nH]5)cc4c(=O)c3cc2F)[nH]1)C(C)C [Compound 27] | < 1 nM
COC(=O)N[C@H](C(=O)N1CCC[C@H]1c1ncc(-c2ccc3c(c2)CN(C)c2ccc(-c4cnc([C@@H]5CCCN5C(=O)[C@@H](NC(=O)OC)C(C)C)[nH]4)cc2CN3C)[nH]1)C(C)C [Compound 13] | < 1 nM
COC(=O)N[C@@H](C)C(=O)N1CCC[C@H]1c1ncc(-c2ccc3oc4cc(-c5cnc([C@@H]6CCCN6C(=O)[C@@H](NC(=O)OC)C(C)C)[nH]5)ccc4c(=O)c3c2)[nH]1 [Compound 20] | < 1 nM
COC(=O)N[C@@H](C(=O)N1CCCC[C@H]1c1ncc(-c2ccc3c(c2)Oc2ccc(-c4cnc([C@@H]5CCCCN5C(=O)[C@H](NC(=O)OC)c5ccccc5)[nH]4)cc2O3)[nH]1)c1ccccc1 [Compound 48] | < 1 nM
C=CC[C@H](NC(=O)OC)C(=O)N1CCC[C@H]1c1ncc(-c2ccc3c(c2)Oc2ccc(-c4cnc([C@@H]5CCCN5C(=O)[C@H](CC=C)NC(=O)OC)[nH]4)cc2O3)[nH]1 [Compound 55] | < 1 nM
COC(=O)N[C@H](C(=O)N1CCC[C@H]1c1ncc(-c2ccc3oc4cc(-c5cnc([C@@H]6CCCN6C(=O)[C@@H](NC(=O)OC)C(C)C)[nH]5)c(Cl)cc4c(=O)c3c2)[nH]1)C(C)C [Compound 49] | < 1 nM
COC(=O)N[C@@H](C(=O)N1CCC[C@H]1c1ncc(-c2ccc3oc4cc(-c5cnc([C@@H]6CCCN6C(=O)[C@H](NC(=O)OC)c6ccccc6)[nH]5)c(Cl)cc4c(=O)c3c2)[nH]1)c1ccccc1 [Compound 58] | < 1 nM
COC[C@H](NC(=O)OC)C(=O)N1CCC[C@H]1c1ncc(-c2ccc3c(c2)Cc2cc(F)c(-c4cnc([C@@H]5CCCN5C(=O)[C@@H](NC(=O)OC)[C@@H](C)OC)[nH]4)cc2O3)[nH]1 [Compound 43] | < 1 nM
COC(=O)N[C@H](C(=O)N1CCC[C@H]1c1ncc(-c2ccc3c(c2)c(=O)c2ccc(-c4cnc([C@@H]5CCCN5C(=O)[C@@H](NC(=O)OC)C(C)C)[nH]4)cc2n3C)[nH]1)C(C)C [Compound 11] | < 1 nM
COC(=O)N[C@H](C(=O)N1CCC[C@H]1c1ncc(-c2ccc3oc4cc(-c5cnc([C@@H]6CCCN6C(=O)[C@H](NC(=O)OC)c6ccccc6)[nH]5)ccc4c(=O)c3c2)[nH]1)C(C)C [Compound 18] | < 1 nM
